# Test results as given in the supplement of paper PMC10307832.
# Assays:
# Assay in all cases: relative viability (nuclei count vs DMSO), 5 days (fraction); higher = more cells survive
# NCI-H596 = system: NCI-H596
# Method in brief: (§1)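 Nuclei were stained with Hoechst during a one-step fixation (final 0.05% Triton X-100, 1% formaldehyde, 1 ug/ml Hoechst) carried out 5 days after dosing, then counted on 4× images. The cells, lung cancer lines in 1536-well plates, had been dosed by pin tool the day after seeding with one drug alone or a fixed anchor-drug dose plus five library-drug doses (not always all listed) in √10 steps. Relative viability is the nuclei count in treated wells divided by that in vehicle wells, and each value is the median of duplicate plates.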
# LU99A = system: LU99A
# Method in brief: as §1
# SW 1573 = system: SW 1573
# Method in brief: as §1
# NCI-H1793 = system: NCI-H1793
# Method in brief: as §1
# NCI-H727 = system: NCI-H727
# Method in brief: as §1
# NCI-H2170 = system: NCI-H2170
# Method in brief: as §1
# HOP-62 = system: HOP-62
# Method in brief: as §1
# NCI-H2228 = system: NCI-H2228
# Method in brief: as §1
# SK-LU-1 = system: SK-LU-1
# Method in brief: as §1
# HARA = system: HARA
# Method in brief: as §1
# NCI-H3122 = system: NCI-H3122
# Method in brief: as §1
# COR-L23 = system: COR-L23
# Method in brief: as §1
# A-427 = system: A-427
# Method in brief: as §1
# NCI-H1993 = system: NCI-H1993
# Method in brief: as §1
# LXF-289 = system: LXF-289
# Method in brief: as §1
# NCI-H1944 = system: NCI-H1944
# Method in brief: as §1
# SW 900 = system: SW 900
# Method in brief: as §1
# EMC-BAC-2 = system: EMC-BAC-2
# Method in brief: as §1
# SK-MES-1 = system: SK-MES-1
# Method in brief: as §1
# LK-2 = system: LK-2
# Method in brief: as §1
# ABC-1 = system: ABC-1
# Method in brief: as §1
# NCI-H2009 = system: NCI-H2009
# Method in brief: as §1
# PC-3 [JPC-3] = system: PC-3 [JPC-3]
# Method in brief: as §1
compound,measurement,setting,value
COc1cc(N2CCC(C(N)=O)CC2)ccc1Nc1nc(N)c(Cl)c(Nc2ccccc2S(=O)(=O)C(C)C)n1 [HG-5-88-01] + O=C(CCCCCCC(=O)Nc1ccccc1)NO [Vorinostat] (partner 1 µM),relative viability,NCI-H596; first compound 0.04 µM,0.604
same,relative viability,NCI-H596; first compound 0.1265 µM,0.597
same,relative viability,NCI-H596; first compound 0.4 µM,0.641
same,relative viability,NCI-H596; first compound 1.265 µM,0.571
same,relative viability,NCI-H596; first compound 4 µM,0.532
same,relative viability,LU99A; first compound 0.04 µM,0.442
same,relative viability,LU99A; first compound 0.1265 µM,0.454
same,relative viability,LU99A; first compound 0.4 µM,0.522
same,relative viability,LU99A; first compound 1.265 µM,0.55
same,relative viability,LU99A; first compound 4 µM,0.436
same,relative viability,SW 1573; first compound 0.04 µM,0.657
same,relative viability,SW 1573; first compound 0.1265 µM,0.896
same,relative viability,SW 1573; first compound 0.4 µM,0.816
same,relative viability,SW 1573; first compound 1.265 µM,0.755
same,relative viability,SW 1573; first compound 4 µM,0.851
same,relative viability,NCI-H1793; first compound 0.04 µM,0.648
same,relative viability,NCI-H1793; first compound 0.1265 µM,0.95
same,relative viability,NCI-H1793; first compound 0.4 µM,0.725
same,relative viability,NCI-H1793; first compound 1.265 µM,0.575
same,relative viability,NCI-H1793; first compound 4 µM,0.53
same,relative viability,NCI-H727; first compound 0.04 µM,1.29
same,relative viability,NCI-H727; first compound 0.1265 µM,1.18
same,relative viability,NCI-H727; first compound 0.4 µM,1.19
same,relative viability,NCI-H727; first compound 4 µM,1.1
same,relative viability,NCI-H2170; first compound 0.04 µM,0.837
same,relative viability,NCI-H2170; first compound 0.1265 µM,0.9
same,relative viability,NCI-H2170; first compound 0.4 µM,0.773
same,relative viability,NCI-H2170; first compound 1.265 µM,0.594
same,relative viability,NCI-H2170; first compound 4 µM,0.892
same,relative viability,HOP-62; first compound 0.04 µM,0.579
same,relative viability,HOP-62; first compound 0.1265 µM,0.799
same,relative viability,HOP-62; first compound 0.4 µM,0.611
same,relative viability,HOP-62; first compound 1.265 µM,0.728
same,relative viability,HOP-62; first compound 4 µM,0.668
same,relative viability,NCI-H2228; first compound 0.04 µM,0.731
same,relative viability,NCI-H2228; first compound 0.1265 µM,0.421
same,relative viability,NCI-H2228; first compound 0.4 µM,0.3
same,relative viability,NCI-H2228; first compound 1.265 µM,0.348
same,relative viability,NCI-H2228; first compound 4 µM,0.379
same,relative viability,SK-LU-1; first compound 0.04 µM,0.783
same,relative viability,SK-LU-1; first compound 0.1265 µM,0.82
same,relative viability,SK-LU-1; first compound 0.4 µM,0.789
same,relative viability,SK-LU-1; first compound 1.265 µM,0.773
same,relative viability,SK-LU-1; first compound 4 µM,0.547
same,relative viability,HARA; first compound 0.04 µM,0.532
same,relative viability,HARA; first compound 0.1265 µM,0.526
same,relative viability,HARA; first compound 0.4 µM,0.585
same,relative viability,HARA; first compound 1.265 µM,0.577
same,relative viability,HARA; first compound 4 µM,0.507
same,relative viability,NCI-H3122; first compound 0.04 µM,0.731
same,relative viability,NCI-H3122; first compound 0.1265 µM,0.438
same,relative viability,NCI-H3122; first compound 0.4 µM,0.195
same,relative viability,NCI-H3122; first compound 1.265 µM,0.218
same,relative viability,NCI-H3122; first compound 4 µM,0.158
same,relative viability,COR-L23; first compound 0.04 µM,0.496
same,relative viability,COR-L23; first compound 0.1265 µM,0.381
same,relative viability,COR-L23; first compound 0.4 µM,0.355
same,relative viability,COR-L23; first compound 1.265 µM,0.364
same,relative viability,COR-L23; first compound 4 µM,0.227
same,relative viability,A-427; first compound 0.04 µM,0.892
same,relative viability,A-427; first compound 0.1265 µM,0.859
same,relative viability,A-427; first compound 0.4 µM,0.884
same,relative viability,A-427; first compound 1.265 µM,0.912
same,relative viability,A-427; first compound 4 µM,0.726
same,relative viability,NCI-H1993; first compound 0.04 µM,0.669
same,relative viability,NCI-H1993; first compound 0.1265 µM,0.976
same,relative viability,NCI-H1993; first compound 0.4 µM,0.721
same,relative viability,NCI-H1993; first compound 4 µM,0.644
same,relative viability,LXF-289; first compound 0.04 µM,0.93
same,relative viability,LXF-289; first compound 0.1265 µM,0.754
same,relative viability,LXF-289; first compound 0.4 µM,0.826
same,relative viability,LXF-289; first compound 1.265 µM,0.847
same,relative viability,LXF-289; first compound 4 µM,0.822
same,relative viability,NCI-H1944; first compound 0.04 µM,0.623
same,relative viability,NCI-H1944; first compound 0.1265 µM,0.627
same,relative viability,NCI-H1944; first compound 0.4 µM,0.645
same,relative viability,NCI-H1944; first compound 1.265 µM,0.55
same,relative viability,NCI-H1944; first compound 4 µM,0.568
same,relative viability,SW 900; first compound 0.04 µM,0.583
same,relative viability,SW 900; first compound 0.1265 µM,0.334
same,relative viability,SW 900; first compound 0.4 µM,0.525
same,relative viability,SW 900; first compound 1.265 µM,0.447
same,relative viability,SW 900; first compound 4 µM,0.354
same,relative viability,EMC-BAC-2; first compound 0.04 µM,0.503
same,relative viability,EMC-BAC-2; first compound 0.1265 µM,0.442
same,relative viability,EMC-BAC-2; first compound 0.4 µM,0.354
same,relative viability,EMC-BAC-2; first compound 1.265 µM,0.518
same,relative viability,EMC-BAC-2; first compound 4 µM,0.448
same,relative viability,SK-MES-1; first compound 0.04 µM,1.14
same,relative viability,SK-MES-1; first compound 0.1265 µM,1.03
same,relative viability,SK-MES-1; first compound 0.4 µM,1.1
same,relative viability,SK-MES-1; first compound 1.265 µM,0.979
same,relative viability,SK-MES-1; first compound 4 µM,1.21
same,relative viability,LK-2; first compound 0.04 µM,0.326
same,relative viability,LK-2; first compound 0.1265 µM,0.411
same,relative viability,LK-2; first compound 0.4 µM,0.466
same,relative viability,LK-2; first compound 4 µM,0.306
same,relative viability,ABC-1; first compound 0.04 µM,1.07
same,relative viability,ABC-1; first compound 0.1265 µM,1.48
same,relative viability,ABC-1; first compound 0.4 µM,1.04
same,relative viability,ABC-1; first compound 1.265 µM,1.04
same,relative viability,ABC-1; first compound 4 µM,0.715
same,relative viability,NCI-H2009; first compound 0.04 µM,0.704
same,relative viability,NCI-H2009; first compound 0.1265 µM,0.796
same,relative viability,NCI-H2009; first compound 0.4 µM,0.694
same,relative viability,NCI-H2009; first compound 1.265 µM,0.616
same,relative viability,NCI-H2009; first compound 4 µM,0.647
same,relative viability,PC-3 [JPC-3]; first compound 0.04 µM,0.879
same,relative viability,PC-3 [JPC-3]; first compound 0.1265 µM,0.756
same,relative viability,PC-3 [JPC-3]; first compound 0.4 µM,0.58
same,relative viability,PC-3 [JPC-3]; first compound 1.265 µM,0.724
same,relative viability,PC-3 [JPC-3]; first compound 4 µM,0.303
